Reference: ChEMBL document CHEMBL5465560, “Selectivity Literature for EUbOPEN Chemogenomic Library” (2024)
Values belong to the molecule of their own block, whether it stands above or below them.

Experiments:
[1] = system: eIF-2-alpha kinase GCN2 (Homo sapiens), Q9P2K8 [S808G]; assay: Selectivity interaction (KinomeScan (DiscoverX)) EUB0000666a EIF2AK4; settings: at 10 µM
[2] = molecular target: Serine/threonine-protein kinase pim-1 (Homo sapiens, UniProt P11309); assay: Selectivity interaction (KinomeScan (DiscoverX)) EUB0000666a PIM1; settings: at 10 µM
[3] = molecular target: cAMP-dependent protein kinase catalytic subunit alpha (Homo sapiens, UniProt P17612); assay: Selectivity interaction (Kinase panel (33PanQinase(R) Activity Assay)) EUB0000877a PRKACA
[4] = molecular target: T1, Tyrosine-protein kinase ITK/TSK (Homo sapiens) (UniProt Q08881); assay: Selectivity interaction (SelectScreen profiling (Invitrogen)) EUB0000607a ITK; settings: at 2 µM
T1 sequence (whole entry): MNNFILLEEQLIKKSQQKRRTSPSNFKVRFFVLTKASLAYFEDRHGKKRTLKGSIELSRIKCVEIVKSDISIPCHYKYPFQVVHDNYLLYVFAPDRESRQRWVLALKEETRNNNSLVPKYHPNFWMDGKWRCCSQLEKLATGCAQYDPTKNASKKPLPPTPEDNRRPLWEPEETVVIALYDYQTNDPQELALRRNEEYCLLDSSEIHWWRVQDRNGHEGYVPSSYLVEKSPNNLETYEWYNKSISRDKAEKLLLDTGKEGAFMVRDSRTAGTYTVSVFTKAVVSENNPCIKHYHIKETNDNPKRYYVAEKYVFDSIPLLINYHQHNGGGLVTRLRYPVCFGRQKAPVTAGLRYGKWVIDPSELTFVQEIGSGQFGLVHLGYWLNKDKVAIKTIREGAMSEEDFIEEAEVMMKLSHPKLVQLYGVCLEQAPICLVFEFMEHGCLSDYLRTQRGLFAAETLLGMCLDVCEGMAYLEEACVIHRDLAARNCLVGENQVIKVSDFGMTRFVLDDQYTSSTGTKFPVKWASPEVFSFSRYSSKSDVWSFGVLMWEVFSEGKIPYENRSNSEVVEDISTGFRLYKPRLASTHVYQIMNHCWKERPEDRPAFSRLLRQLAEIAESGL

[5] = molecular target: Serine/threonine-protein kinase PRP4 homolog (Homo sapiens) (UniProt Q13523); assay: Selectivity interaction (ActivX KiNativ screen (kinase selectivity in THP-1 cell lysates)) EUB0000639a PRPF4; format: subcellular; settings: lysate
[6] = molecular target: T2, Serine/threonine-protein kinase tousled-like 1 (Homo sapiens) (UniProt Q9UKI8); assay: Selectivity interaction (ProQinase) EUB0000171b TLK1
T2 sequence (whole entry): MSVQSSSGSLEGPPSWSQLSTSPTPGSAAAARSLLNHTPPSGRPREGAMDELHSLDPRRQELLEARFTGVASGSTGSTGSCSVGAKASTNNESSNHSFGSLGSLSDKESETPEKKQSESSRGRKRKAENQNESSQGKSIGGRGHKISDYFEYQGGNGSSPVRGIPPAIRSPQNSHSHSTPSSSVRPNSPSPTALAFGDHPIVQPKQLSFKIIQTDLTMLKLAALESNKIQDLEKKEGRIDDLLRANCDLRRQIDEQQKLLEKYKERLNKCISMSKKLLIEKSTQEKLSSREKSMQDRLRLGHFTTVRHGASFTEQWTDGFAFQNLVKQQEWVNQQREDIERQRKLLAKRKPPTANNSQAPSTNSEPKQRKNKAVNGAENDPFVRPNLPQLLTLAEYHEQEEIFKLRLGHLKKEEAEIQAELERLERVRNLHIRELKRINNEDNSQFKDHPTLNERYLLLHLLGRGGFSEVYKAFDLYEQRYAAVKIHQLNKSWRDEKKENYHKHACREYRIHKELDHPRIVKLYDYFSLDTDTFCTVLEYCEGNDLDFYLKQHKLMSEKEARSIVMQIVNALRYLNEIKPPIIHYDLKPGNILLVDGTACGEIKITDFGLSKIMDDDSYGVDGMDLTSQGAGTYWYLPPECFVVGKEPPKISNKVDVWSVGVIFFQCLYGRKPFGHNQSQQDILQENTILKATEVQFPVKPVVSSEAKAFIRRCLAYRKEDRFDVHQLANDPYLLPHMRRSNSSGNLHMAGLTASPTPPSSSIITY

[7] = molecular target: Glutamate receptor ionotropic, NMDA 1 (Homo sapiens) (UniProt Q05586); assay: Selectivity interaction (Panel of non-epigenetic targets (kinases, GPCRs, ion channels, and transporters, Eurofins) ) EUB0000271b GRIN1; settings: at 1 µM
[8] = molecular target: Bone morphogenetic protein receptor type-1B (Homo sapiens, UniProt O00238); assay: Selectivity interaction (Ambit KINOMEscan and KiNATiv profiling in Jurkat cells) EUB0000090b BMPR1B; format: cell-based; settings: at 1 µM
[9] = molecular target: Tyrosine-protein kinase JAK1 (Homo sapiens, UniProt P23458); assay: Selectivity interaction (SelectScreen Kinase Profiling (Thermo Fisher Scientific)) EUB0001558a JAK1; settings: at 1 µM
[10] = molecular target: Myosin light chain kinase, smooth muscle (Homo sapiens, UniProt Q15746); settings: at 10 µM
[11] = molecular target: T3, Serine/threonine-protein kinase Nek5 (Homo sapiens) (UniProt Q6P3R8); assay: Selectivity interaction (KinomeScan (DiscoverX)) EUB0001619a NEK5; settings: at 1 µM
T3 sequence (whole entry): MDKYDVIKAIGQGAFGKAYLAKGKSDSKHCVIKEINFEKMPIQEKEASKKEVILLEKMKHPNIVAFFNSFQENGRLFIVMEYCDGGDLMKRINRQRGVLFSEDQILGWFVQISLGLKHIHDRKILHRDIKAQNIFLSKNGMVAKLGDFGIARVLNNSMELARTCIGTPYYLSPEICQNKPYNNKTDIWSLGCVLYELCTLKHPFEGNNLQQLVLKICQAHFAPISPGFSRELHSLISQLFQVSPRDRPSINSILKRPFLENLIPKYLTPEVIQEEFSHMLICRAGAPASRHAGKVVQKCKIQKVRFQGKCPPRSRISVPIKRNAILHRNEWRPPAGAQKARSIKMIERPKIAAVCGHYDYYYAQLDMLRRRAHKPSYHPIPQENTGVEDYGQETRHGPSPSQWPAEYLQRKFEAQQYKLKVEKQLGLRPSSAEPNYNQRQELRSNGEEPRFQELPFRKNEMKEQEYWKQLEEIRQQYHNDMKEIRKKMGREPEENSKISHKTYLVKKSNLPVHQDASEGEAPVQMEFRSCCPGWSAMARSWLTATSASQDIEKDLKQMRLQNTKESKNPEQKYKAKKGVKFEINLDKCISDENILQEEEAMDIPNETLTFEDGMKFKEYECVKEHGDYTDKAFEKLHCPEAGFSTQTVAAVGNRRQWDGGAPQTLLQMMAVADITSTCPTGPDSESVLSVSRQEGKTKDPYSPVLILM

[12] = molecular target: Cyclin-dependent kinase 5 (Homo sapiens, UniProt Q00535); assay: Selectivity interaction (ActivX KiNativ screen (ex vivo kinase selectivity in human PBMCs)) EUB0001619a CDK5; format: cell-based; settings: PBMC, at 1 µM
Sequence of Cyclin-dependent kinase 5 (Q00535 whole entry, looked up): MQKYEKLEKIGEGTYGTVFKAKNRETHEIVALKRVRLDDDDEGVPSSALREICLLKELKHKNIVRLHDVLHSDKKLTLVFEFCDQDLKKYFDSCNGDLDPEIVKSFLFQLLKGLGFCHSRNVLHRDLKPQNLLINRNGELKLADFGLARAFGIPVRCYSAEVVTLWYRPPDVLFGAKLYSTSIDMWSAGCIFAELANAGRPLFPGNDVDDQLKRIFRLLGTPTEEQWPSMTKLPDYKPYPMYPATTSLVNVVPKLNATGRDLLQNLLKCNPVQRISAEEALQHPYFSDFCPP

Sequence of Serine/threonine-protein kinase PRP4 homolog (Homo sapiens) (Q13523 whole entry): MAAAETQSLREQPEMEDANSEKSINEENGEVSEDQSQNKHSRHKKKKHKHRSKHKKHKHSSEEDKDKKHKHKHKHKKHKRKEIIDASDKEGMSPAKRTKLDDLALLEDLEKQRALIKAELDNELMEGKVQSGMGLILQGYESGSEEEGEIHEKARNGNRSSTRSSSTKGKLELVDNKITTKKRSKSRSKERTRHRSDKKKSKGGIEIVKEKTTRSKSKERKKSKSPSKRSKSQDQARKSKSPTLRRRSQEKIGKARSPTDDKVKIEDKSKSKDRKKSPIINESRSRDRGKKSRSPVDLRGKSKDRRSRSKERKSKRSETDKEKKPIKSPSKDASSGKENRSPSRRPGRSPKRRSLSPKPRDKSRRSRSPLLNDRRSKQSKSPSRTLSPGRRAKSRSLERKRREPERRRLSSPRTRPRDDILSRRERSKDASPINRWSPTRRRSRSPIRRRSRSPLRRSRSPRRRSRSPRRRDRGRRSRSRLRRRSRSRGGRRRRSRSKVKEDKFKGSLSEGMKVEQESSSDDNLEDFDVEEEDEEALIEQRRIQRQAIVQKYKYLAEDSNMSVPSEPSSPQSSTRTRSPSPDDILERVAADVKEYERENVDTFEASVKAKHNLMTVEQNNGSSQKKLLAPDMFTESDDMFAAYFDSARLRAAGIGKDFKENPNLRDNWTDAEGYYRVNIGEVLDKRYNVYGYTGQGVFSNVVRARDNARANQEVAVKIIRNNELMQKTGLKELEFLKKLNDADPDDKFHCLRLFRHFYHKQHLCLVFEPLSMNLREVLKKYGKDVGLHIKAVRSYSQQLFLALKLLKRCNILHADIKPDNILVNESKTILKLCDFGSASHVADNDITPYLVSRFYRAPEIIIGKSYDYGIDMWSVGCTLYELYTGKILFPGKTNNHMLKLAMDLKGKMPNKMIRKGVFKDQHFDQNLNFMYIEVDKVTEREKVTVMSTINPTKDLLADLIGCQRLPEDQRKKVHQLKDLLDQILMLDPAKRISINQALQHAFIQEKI
Sequence of Bone morphogenetic protein receptor type-1B (O00238 whole entry): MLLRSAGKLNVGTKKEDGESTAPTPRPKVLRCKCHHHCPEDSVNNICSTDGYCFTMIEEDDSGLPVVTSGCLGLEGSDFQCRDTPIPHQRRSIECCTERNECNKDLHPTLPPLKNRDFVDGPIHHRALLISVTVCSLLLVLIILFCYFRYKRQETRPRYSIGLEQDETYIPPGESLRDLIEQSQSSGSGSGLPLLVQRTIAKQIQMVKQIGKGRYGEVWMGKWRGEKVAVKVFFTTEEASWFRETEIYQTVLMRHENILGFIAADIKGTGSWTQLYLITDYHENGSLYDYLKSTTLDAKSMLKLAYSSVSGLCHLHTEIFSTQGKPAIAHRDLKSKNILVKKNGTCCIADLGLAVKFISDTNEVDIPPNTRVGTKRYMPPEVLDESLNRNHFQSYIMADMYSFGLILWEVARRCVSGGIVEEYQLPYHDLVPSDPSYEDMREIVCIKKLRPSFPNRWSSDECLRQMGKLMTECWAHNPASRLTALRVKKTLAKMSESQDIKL
Sequence of Serine/threonine-protein kinase pim-1 (P11309 whole entry, looked up): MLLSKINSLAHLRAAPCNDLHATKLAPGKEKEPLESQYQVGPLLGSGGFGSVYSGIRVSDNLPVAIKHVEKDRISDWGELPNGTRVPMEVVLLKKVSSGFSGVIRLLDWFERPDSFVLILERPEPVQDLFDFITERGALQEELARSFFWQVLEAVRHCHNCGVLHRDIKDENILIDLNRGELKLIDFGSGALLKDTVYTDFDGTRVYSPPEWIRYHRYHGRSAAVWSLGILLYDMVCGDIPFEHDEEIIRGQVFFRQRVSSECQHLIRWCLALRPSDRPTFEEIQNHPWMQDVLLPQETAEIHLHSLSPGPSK
Sequence of Tyrosine-protein kinase JAK1 (P23458 whole entry): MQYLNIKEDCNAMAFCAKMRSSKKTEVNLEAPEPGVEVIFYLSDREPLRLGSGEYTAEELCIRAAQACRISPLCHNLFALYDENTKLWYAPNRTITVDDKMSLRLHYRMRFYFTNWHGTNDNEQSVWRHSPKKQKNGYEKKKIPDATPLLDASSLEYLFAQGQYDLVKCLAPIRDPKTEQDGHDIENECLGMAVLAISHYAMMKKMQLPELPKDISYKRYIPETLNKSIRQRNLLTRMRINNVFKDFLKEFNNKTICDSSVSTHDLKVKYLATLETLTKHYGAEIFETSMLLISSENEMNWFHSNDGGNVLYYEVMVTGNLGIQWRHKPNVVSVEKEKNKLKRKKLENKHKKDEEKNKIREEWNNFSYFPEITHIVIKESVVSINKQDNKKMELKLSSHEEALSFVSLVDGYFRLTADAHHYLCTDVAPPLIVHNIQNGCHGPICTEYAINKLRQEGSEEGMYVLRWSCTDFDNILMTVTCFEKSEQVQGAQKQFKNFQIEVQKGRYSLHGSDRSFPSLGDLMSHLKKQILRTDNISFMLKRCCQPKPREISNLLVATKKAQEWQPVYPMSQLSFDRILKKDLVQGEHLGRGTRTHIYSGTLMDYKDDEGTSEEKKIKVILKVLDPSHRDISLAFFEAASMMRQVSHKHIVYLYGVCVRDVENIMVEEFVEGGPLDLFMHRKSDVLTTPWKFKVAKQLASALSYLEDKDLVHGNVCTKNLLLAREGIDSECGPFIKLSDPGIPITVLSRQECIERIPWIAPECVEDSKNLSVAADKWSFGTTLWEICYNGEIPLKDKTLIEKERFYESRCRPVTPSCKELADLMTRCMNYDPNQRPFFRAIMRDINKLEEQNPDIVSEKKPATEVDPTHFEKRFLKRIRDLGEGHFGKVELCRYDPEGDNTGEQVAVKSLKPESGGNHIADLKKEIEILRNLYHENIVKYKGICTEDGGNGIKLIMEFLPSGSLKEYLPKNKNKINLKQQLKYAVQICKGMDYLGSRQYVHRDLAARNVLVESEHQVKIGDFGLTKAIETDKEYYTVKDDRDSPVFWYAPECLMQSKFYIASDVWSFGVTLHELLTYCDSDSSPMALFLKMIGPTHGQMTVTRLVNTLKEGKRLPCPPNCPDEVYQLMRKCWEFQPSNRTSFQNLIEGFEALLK
Sequence of eIF-2-alpha kinase GCN2 (Homo sapiens), Q9P2K8 [S808G] (Q9P2K8 whole entry S808G): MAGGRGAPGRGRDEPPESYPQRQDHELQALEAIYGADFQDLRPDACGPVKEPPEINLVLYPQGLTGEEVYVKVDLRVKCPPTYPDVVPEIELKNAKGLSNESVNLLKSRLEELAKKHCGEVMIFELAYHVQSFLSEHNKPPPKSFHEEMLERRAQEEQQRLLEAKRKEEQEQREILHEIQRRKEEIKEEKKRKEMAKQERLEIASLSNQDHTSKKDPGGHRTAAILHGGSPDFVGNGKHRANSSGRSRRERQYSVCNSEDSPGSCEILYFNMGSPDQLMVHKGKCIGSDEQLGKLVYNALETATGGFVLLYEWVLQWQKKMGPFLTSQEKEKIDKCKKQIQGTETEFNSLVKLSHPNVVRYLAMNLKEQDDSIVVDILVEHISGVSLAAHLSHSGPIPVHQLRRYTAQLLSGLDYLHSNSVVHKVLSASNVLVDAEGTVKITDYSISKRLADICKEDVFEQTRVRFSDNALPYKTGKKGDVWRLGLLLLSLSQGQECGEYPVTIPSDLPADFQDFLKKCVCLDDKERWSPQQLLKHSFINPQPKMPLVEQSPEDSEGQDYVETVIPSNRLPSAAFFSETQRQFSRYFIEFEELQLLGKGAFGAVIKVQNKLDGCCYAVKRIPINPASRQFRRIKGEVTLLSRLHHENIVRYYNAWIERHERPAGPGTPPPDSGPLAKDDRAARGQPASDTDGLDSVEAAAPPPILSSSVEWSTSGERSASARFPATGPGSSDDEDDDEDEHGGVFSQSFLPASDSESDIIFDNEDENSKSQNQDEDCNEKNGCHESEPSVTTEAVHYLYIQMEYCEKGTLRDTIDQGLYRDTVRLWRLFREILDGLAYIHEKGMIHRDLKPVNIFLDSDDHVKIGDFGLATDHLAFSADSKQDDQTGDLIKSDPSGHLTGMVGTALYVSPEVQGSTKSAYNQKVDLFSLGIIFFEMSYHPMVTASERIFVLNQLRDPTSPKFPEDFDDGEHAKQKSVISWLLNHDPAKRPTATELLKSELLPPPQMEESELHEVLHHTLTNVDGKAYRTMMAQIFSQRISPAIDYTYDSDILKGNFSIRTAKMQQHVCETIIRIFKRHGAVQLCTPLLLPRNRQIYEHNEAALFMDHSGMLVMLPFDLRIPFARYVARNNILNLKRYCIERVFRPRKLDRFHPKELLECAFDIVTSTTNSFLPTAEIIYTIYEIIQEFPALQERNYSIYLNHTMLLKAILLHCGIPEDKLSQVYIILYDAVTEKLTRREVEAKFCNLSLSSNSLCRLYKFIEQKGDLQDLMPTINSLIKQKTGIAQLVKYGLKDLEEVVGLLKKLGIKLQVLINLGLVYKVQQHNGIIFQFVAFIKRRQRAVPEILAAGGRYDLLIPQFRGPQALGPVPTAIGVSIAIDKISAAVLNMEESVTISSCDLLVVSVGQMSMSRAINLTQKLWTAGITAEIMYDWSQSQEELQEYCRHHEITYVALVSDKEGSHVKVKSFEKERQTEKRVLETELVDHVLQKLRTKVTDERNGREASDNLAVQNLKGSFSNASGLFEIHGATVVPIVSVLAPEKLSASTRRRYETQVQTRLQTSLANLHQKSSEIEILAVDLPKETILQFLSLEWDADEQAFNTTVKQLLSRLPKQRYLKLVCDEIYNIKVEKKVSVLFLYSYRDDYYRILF

Structure (SMILES): O=C(NOC[C@H](O)CO)c1ccc(F)c(F)c1Nc1ccc(I)cc1F
% of control [1]: 84%
% of control [2]: 100%

IC50 [3]: > 10 µM
Structure (SMILES): CCC(=O)N1CC[C@H](Nc2ncnc3c2CN(c2cnc(OC)c(C(F)(F)F)c2)CC3)C1 [LENIOLISIB]

Structure (SMILES): CNC(=O)Nc1ccc(-c2nc(N3CC4CCC(C3)O4)c3cnn(C4CCC5(CC4)OCCO5)c3n2)cc1
% of inhibition [4]: 2%

% of inhibition ([5]; at 0.01 µM): -2.3%
% of inhibition ([5]; at 0.04 µM): 7.1%
% of inhibition ([5]; at 0.2 µM): 29.8%
% of inhibition ([5]; at 1 µM): 73.9%
% of inhibition ([5]; at 5 µM): 86.3%
Structure (SMILES): CC[C@@H]1[C@H](F)C(=O)N[C@@H]1COc1nccc2cc(C(N)=O)c(OC)cc12 [ZIMLOVISERTIB]

% of control ([6]; at 1 µM): 97%
% of control ([6]; at 5 µM): 90%
Structure (SMILES): C=CC(=O)Nc1cccc(C(=O)Nc2ccc(Nc3cc(-c4[nH]c(SC)nc4C)ccn3)cc2)c1

Structure (SMILES): Cc1cc(C)cc([C@@H]2c3cc(C)ccc3NC(=O)CN2C(=O)c2ccc(Br)s2)c1
% of inhibition [7]: 1%

Structure (SMILES): CN(C)C/C=C/C(=O)Nc1ccc(C(=O)N2CCCC(Nc3ncc(Cl)c(-c4c[nH]c5ccccc45)n3)C2)cc1 (configuration not stated)
% of control [8]: 91%

Structure (SMILES): CC(C)(O)[C@H](F)CN1Cc2cc(NC(=O)c3cnn4cccnc34)c(N3CCOCC3)cc2C1=O
% of inhibition [9]: 83.5%

Structure (SMILES): Cc1cc([C@@H](C)Nc2ccccc2C(=O)O)c2nc(N3CCOCC3)cc(=O)n2c1 [AZD-6482]
% of control [10]: 100%

Structure (SMILES): N#Cc1cccc(-c2c[nH]c3ncnc(N4CCOCC4)c23)c1
% of control [11]: 100%
% of inhibition [12]: 0%
